The target of series [1] is T1, Metabotropic glutamate receptor 2 (Rattus norvegicus, UniProt P31421). Kind of series: Partial displacement of [3H]LY354740 from recombinant rat mGluR2.
Series [2] addresses T1, Metabotropic glutamate receptor 2. Kind of series: Antagonist activity at recombinant rat mGluR2 expressed in forskolin-stimulated CHO cells assessed as inhibition of (1S,3R)-ACPD induced cAMP production. The series is classed as functional, cell-based.
For series [3], the target named is Metabotropic glutamate receptor 3 (Rattus norvegicus, UniProt P31422). Kind of series: Antagonist activity at rat mGluR3 receptor expressed in CHO cells assessed as inhibition of GIRK current. The series is classed as functional, cell-based.
In series [4] the target is Metabotropic glutamate receptor 2 (Homo sapiens, UniProt Q14416). The series can be described thus: Antagonist activity at human mGluR2 receptor expressed in CHO cells assessed as inhibition of GIRK current. The series is classed as functional, cell-based.
In another series the target is Cytochrome P450 3A4 (Homo sapiens, UniProt P08684). Kind of series: Inhibition of CYP3A4. The series is classed as ADME.
Series [5] can be described thus: Thermodynamic solubility of the compound at pH 3. The series is classed as physicochemical. Conditions: buffer.
In series [6] the target is T1, Metabotropic glutamate receptor 2. The series can be described thus: Antagonist activity at rat mGluR2 receptor expressed in CHO cells assessed as inhibition of GIRK current. The series is classed as functional, cell-based.
The next series deals with Liver microsomes. The series can be described thus: Clearance in rat liver microsomes. The series is classed as ADME, Microsome.

≈ marks a conversion by molar mass, not a printed value.

Sequence of Cytochrome P450 3A4 (P08684 whole entry): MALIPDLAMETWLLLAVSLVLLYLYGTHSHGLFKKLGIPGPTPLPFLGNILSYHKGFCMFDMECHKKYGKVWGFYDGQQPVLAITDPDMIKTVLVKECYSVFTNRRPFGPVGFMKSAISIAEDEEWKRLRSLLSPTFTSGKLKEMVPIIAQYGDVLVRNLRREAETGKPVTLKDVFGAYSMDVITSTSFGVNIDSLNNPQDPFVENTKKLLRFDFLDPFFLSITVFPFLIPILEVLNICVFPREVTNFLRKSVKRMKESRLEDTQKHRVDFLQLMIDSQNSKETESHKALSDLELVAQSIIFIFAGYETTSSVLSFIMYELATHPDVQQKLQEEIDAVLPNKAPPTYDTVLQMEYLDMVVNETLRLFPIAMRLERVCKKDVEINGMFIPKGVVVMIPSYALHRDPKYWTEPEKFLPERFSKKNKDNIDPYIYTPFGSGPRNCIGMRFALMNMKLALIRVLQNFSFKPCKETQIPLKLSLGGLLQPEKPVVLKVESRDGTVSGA
Sequence of Metabotropic glutamate receptor 2 (Homo sapiens, UniProt Q14416) (Q14416 whole entry): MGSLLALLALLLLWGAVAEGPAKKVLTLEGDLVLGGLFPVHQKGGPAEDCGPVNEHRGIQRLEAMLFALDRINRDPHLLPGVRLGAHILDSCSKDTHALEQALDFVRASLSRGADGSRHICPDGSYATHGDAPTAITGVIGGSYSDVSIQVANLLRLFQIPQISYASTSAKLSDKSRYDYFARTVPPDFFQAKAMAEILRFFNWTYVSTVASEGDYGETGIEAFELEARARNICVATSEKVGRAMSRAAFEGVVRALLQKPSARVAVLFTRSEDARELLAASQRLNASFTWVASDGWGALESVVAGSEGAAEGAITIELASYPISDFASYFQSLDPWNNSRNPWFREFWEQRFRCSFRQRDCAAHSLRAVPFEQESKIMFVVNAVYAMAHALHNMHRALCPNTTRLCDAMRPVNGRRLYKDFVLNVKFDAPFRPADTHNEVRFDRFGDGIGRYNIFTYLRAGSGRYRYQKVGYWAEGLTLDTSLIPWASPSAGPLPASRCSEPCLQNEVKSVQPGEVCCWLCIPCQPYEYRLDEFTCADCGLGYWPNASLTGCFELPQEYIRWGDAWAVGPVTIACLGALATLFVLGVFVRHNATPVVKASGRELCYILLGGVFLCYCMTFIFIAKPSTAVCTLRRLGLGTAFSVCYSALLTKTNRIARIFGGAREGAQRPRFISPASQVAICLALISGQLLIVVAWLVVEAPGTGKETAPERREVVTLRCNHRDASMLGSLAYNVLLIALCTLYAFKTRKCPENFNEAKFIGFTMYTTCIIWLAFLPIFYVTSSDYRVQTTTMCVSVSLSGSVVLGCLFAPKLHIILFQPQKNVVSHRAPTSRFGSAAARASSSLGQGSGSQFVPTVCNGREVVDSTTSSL
Sequence of Metabotropic glutamate receptor 3 (P31422 whole entry): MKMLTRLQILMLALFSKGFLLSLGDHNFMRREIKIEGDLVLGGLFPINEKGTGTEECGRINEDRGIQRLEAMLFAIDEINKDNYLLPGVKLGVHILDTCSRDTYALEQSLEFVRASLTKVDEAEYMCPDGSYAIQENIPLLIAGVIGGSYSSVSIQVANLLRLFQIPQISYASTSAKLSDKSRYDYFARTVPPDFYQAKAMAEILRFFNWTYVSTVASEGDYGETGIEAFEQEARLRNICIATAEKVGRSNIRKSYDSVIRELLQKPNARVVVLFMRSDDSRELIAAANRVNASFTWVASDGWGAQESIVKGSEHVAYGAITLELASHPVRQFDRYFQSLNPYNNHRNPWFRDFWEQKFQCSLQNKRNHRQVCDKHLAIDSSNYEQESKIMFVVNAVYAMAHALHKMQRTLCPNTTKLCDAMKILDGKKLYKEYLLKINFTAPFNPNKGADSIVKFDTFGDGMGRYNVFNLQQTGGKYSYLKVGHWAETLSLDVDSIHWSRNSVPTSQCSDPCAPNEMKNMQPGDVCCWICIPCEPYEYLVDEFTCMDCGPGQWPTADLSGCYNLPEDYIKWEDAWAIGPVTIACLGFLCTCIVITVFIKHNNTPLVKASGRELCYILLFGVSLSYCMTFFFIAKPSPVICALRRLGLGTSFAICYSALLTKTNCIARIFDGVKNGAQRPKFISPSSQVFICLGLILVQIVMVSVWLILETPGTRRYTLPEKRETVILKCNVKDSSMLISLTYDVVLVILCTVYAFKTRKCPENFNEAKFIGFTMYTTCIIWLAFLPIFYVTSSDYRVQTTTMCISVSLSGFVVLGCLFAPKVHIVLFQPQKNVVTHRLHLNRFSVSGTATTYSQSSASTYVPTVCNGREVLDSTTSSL
T1 sequence (P31421 whole entry): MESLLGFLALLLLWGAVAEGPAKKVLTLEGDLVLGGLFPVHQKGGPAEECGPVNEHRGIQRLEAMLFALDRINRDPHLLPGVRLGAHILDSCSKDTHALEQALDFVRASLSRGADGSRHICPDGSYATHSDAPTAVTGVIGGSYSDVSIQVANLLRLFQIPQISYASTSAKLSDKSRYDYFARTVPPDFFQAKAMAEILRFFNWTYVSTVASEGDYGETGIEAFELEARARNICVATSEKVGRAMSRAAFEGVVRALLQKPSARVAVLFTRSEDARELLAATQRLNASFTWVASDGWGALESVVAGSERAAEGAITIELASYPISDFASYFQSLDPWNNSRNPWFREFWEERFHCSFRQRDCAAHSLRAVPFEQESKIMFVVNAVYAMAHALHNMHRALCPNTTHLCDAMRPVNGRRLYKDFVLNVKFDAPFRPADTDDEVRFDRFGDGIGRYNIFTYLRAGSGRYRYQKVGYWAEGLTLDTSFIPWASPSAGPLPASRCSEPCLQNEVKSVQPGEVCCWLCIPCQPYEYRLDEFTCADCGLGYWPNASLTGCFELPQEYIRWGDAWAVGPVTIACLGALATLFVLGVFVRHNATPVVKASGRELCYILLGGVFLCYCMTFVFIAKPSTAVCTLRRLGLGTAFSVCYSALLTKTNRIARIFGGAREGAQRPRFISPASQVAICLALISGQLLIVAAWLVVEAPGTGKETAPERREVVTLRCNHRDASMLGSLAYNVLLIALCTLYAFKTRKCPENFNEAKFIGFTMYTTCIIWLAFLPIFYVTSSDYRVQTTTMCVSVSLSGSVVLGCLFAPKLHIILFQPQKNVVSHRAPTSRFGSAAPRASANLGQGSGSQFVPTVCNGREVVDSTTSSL

Consider `Cc1cc2c(cc1C(F)(F)F)NC(=O)CC(c1cccc(-c3ccnc(N4CCOCC4)c3)c1)=N2`, for which, in series [1], the IC50 was found to be 29 nM.
Same read-out and setting: under `Cc1cc2c(cc1C(F)(F)F)NC(=O)CC(c1cccc(-c3ccnc(C(F)(F)F)c3)c1)=N2` stands 66 nM.
As to `Cc1cc2c(cc1C(F)(F)F)NC(=O)CC(c1cccc(-c3ccncn3)c1)=N2`, the IC50 in series [2] worked out at 50 nM; in series [1], 6 nM.
The like results for `COc1ccc(-c2cccc(C3=Nc4cc(C)c(C(F)(F)F)cc4NC(=O)C3)c2)cn1` were, in that order, 10 nM and 5 nM.
Regarding `Cc1cc(-c2cccc(C3=Nc4cc(Cl)c(Cl)cc4NC(=O)C3)c2)ccn1`, the half-maximal inhibitory concentration (IC50) in series [2] is 2 nM; in series [3], 30 nM; in series [1], 4 nM; in series [4], 7 nM.
On to `Cc1cc2c(cc1C(F)(F)F)NC(=O)CC(c1cccc(-c3ccnc(C(C)(C)O)c3)c1)=N2`, for which the IC50 in series [2] came out at 14 nM; in series [1], 40 nM.
Turning to `Cc1cc2c(cc1C(F)(F)F)NC(=O)CC(c1cccc(-c3ccc(N(C)C)nc3)c1)=N2`, in series [1], the IC50 was found to be 86 nM.
For `Cc1cc2c(cc1C(F)(F)F)NC(=O)CC(c1cccc(-n3cncn3)c1)=N2`, the IC50 in series [2] is 75 nM; in series [1], 8 nM.
Consider `O=C1CC(c2cccc(-c3ccncc3)c2)=Nc2ccc(Cl)cc2N1`, for which the IC50 in series [2] was determined as 3 nM; in series [1] it was 8 nM; in series [4] it was 10 nM.
As to `Cc1cc2c(cc1C(F)(F)F)NC(=O)CC(c1cccc(-c3ccnc(-n4cccc4)c3)c1)=N2`, the IC50 in series [1] was determined as 59 nM.
As to `Cc1cc2c(cc1C(F)(F)F)NC(=O)CC(c1cccc(-c3ccncc3)c1)=N2`, the IC50 against Cytochrome P450 3A4 is 200 nM; in series [2] it was 11 nM; in series [1] it was 4 nM. In series [5], this molecule registered a thermodynamic solubility of 5 µg/mL (≈ 12.6 µM).
Consider `Cc1nc(-c2cccc(C3=Nc4ccc(C(F)(F)F)cc4NC(=O)C3)c2)co1`, for which, in series [1], the IC50 turned out to be 350 nM.
For `Cn1nccc1-c1cccc(C2=Nc3ccc(C(F)(F)F)cc3NC(=O)C2)c1`, the half-inhibitory concentration (IC50) in series [2] came out at 190 nM; in series [1], 39 nM.
On the same counts, the results for `Cc1cc2c(cc1C(F)(F)F)NC(=O)CC(c1cccc(-c3ccnnc3)c1)=N2` are 72 nM and 18 nM.
The like results for `CCc1cc(-c2cccc(C3=Nc4cc(C)c(C(F)(F)F)cc4NC(=O)C3)c2)cc(C)n1` were, in that order, 4 nM and 2 nM.
On to `Cc1cc(-c2cccc(C3=Nc4ccc(C(F)(F)F)cc4NC(=O)C3)c2)ccn1`, for which the IC50 in series [2] turned out to be 36 nM; in series [3], 17 nM; in series [1] it was 18 nM; in series [4] it was 25 nM.
On to `CCc1cc(-c2cccc(C3=Nc4cc(C)c(C(F)(F)F)cc4NC(=O)C3)c2)ccn1`, for which the results for the IC50 in series [2] and in series [1] were 5 nM and 8 nM, respectively.
On the same counts, the results for `Cc1cc2c(cc1C(F)(F)F)NC(=O)CC(c1cccc(-c3ccnc(C(C)C)c3)c1)=N2` are 10 nM and 4 nM.
The like results for `Cc1cc2c(cc1C(F)(F)F)NC(=O)CC(c1cccc(-c3ccc(C4CC4)nc3)c1)=N2` were, in that order, 20 nM and 6 nM.
Take `O=C1CC(c2cccc(-c3ccncc3)c2)=Nc2ccc(C(F)(F)F)cc2N1`: the IC50 in series [2] stood at 26 nM; in series [3], 29 nM; in series [1] it was 10 nM; in series [4], 52 nM; in series [6], 101 nM.
Turning to `Cc1cc2c(cc1C(F)(F)F)NC(=O)CC(c1cccc(-c3ccnc(C4CCCC4)c3)c1)=N2`, the results for the IC50 in series [2] and in series [1] were 7 nM and 10 nM, respectively.
The like results for `Cc1cc2c(cc1C(F)(F)F)NC(=O)CC(c1cccc(-c3ccc(C(C)C)nc3)c1)=N2` were, in that order, 10 nM and 10 nM.
On the same counts, the results for `Cc1cc2c(cc1C(F)(F)F)NC(=O)CC(c1cccc(-c3ccc(N)nc3)c1)=N2` are 160 nM and 14 nM.
Turning to `Cc1cc(-c2cccc(C3=Nc4cc(C)c(C(F)(F)F)cc4NC(=O)C3)c2)cc(C2CC2)n1`, the IC50 in series [2] came to 4 nM; in series [1], 2 nM.
The like results for `Cc1cc(-c2cccc(C3=Nc4cc(C)c(C(F)(F)F)cc4NC(=O)C3)c2)on1` were, in that order, 9 nM and 5 nM.
On the same counts, the results for `Cc1cc2c(cc1C(F)(F)F)NC(=O)CC(c1cccc(-c3ccnc(Cc4ccccc4)c3)c1)=N2` are 5 nM and 16 nM.
`Cc1cc(-c2cccc(C3=Nc4cc(C(F)(F)F)c(C(F)(F)F)cc4NC(=O)C3)c2)cc(C)n1`: the IC50 in series [2] and in series [1] was 7 nM in each case.
`Cc1cc2c(cc1C(F)(F)F)NC(=O)CC(c1cccc(-c3cccnc3)c1)=N2`: the figures for the IC50 (on Cytochrome P450 3A4; in series [2]; in series [1]) were 1800 nM, 3 nM and 2 nM, respectively.
For `Cc1cc2c(cc1C(F)(F)F)NC(=O)CC(c1cccc(-c3ccnc(CN(C)C)c3)c1)=N2`, in series [1], the half-inhibitory concentration (IC50) was 274 nM.
Regarding `Cc1cc(-c2cccc(C3=Nc4cc(C)c(C(F)(F)F)cc4NC(=O)C3)c2)cc(CO)n1`, the IC50 in series [2] was 15 nM; in series [1], 14 nM.
Regarding `Cc1ccc2c(c1)NC(=O)CC(c1ccccc1)=N2`, the IC50 in series [1] was found to be 6400 nM.
Same read-out and setting: under `Cc1cc2c(cc1C(F)(F)F)NC(=O)CC(c1cccc(-c3ccnc(-c4ccccc4)c3)c1)=N2` stands 118 nM.
Take `Cc1cc2c(cc1C(F)(F)F)NC(=O)CC(c1cccc(-c3ccnc(C4CC4)c3)c1)=N2`: the IC50 in series [2] amounted to 6 nM; in series [1] it was 10 nM.
In the case of `Cc1ccc(-c2cccc(C3=Nc4cc(C)c(C(F)(F)F)cc4NC(=O)C3)c2)cn1`, the IC50 in series [2] was determined as 5 nM; in series [1], 13 nM.
In the case of `CCOc1cc2c(cc1C(F)(F)F)NC(=O)CC(c1cccc(-c3ccnc(C)c3)c1)=N2`, the IC50 is 8 nM in series [2], 3 nM in series [3], 6 nM in series [1] and 15 nM in series [4].
As for `Cc1cc2c(cc1C(F)(F)F)NC(=O)CC(c1cccc(-c3cncnc3)c1)=N2`, the concentration for half-maximal inhibition (IC50) in series [2] was determined as 48 nM; in series [1], 23 nM.
On the same counts, the results for `Cc1cc2c(cc1C(F)(F)F)NC(=O)CC(c1cccc(-c3ccnc(CO)c3)c1)=N2` are 18 nM and 13 nM.
For the molecule `O=C1CC(c2cccc(-n3ccnn3)c2)=Nc2ccc(-c3ccccc3F)cc2N1`, the IC50 in series [2] was 27 nM; in series [3], 33 nM; in series [1], 12 nM; in series [6], 11 nM.
Take `Cc1cc2c(cc1C(F)(F)F)NC(=O)CC(c1cccc(-c3ccccn3)c1)=N2`: the half-maximal inhibitory concentration (IC50) is 30 nM in series [2] and 26 nM in series [1].
`Cc1cc2c(cc1C(F)(F)F)NC(=O)CC(c1cccc(-n3ccnc3)c1)=N2` registered an IC50 at Cytochrome P450 3A4 of less than 100 nM.
Turning to `Cc1cc2c(cc1C(F)(F)F)NC(=O)CC(c1cccc(-c3cccnn3)c1)=N2`, the IC50 in series [1] came to 128 nM.
Turning to `Cc1cc(-c2cccc(C3=Nc4cc(C)c(C(F)(F)F)cc4NC(=O)C3)c2)ccn1`, the half-inhibitory concentration (IC50) is 1900 nM against Cytochrome P450 3A4; 4 nM in series [2]; 14 nM in series [3]; 4 nM in series [1]; 41 nM in series [4]; 13 nM in series [6]. In addition, the CL with Liver microsomes turned out to be 0.8 mL/min/kg. Besides, in series [5], the thermodynamic solubility was 45 µg/mL (≈ 110 µM).
Turning to `Cc1cc2c(cc1C(F)(F)F)NC(=O)CC(c1cccc(-c3cnccn3)c1)=N2`, the IC50 in series [2] amounted to 16 nM; in series [1], 20 nM.
Consider `CCc1ccc(-c2cccc(C3=Nc4cc(C)c(C(F)(F)F)cc4NC(=O)C3)c2)cn1`, for which the IC50 is 18 nM in series [2] and 9 nM in series [1].
As for `Cc1cc2c(cc1C(F)(F)F)NC(=O)CC(c1cccc(-n3nncc3CO)c1)=N2`, the IC50 in series [1] came to 120 nM.
Take `COCc1cc(-c2cccc(C3=Nc4cc(C)c(C(F)(F)F)cc4NC(=O)C3)c2)ccn1`: the IC50 in series [2] turned out to be 6 nM; in series [1], 13 nM.
For the molecule `COc1cc(-c2cccc(C3=Nc4cc(C)c(C(F)(F)F)cc4NC(=O)C3)c2)ccn1`, the IC50 in series [2] is 16 nM; in series [1], 13 nM.
In the case of `Cc1cc2c(cc1C(F)(F)F)NC(=O)CC(c1cccc(-c3ccnc(C#N)c3)c1)=N2`, the IC50 in series [2] is 18 nM; in series [1] it was 12 nM.
On the same counts, the results for `COCc1cc(-c2cccc(C3=Nc4cc(C)c(C(F)(F)F)cc4NC(=O)C3)c2)cc(C)n1` are 5 nM and 8 nM.
For the molecule `CCOc1cc2c(cc1C(F)(F)F)NC(=O)CC(c1cccc(-c3ccncc3)c1)=N2`, the IC50 in series [2] stood at 10 nM; in series [3] it was 6 nM; in series [1], 4 nM; in series [4], 38 nM; in series [6] it was 8 nM.

The values above are taken from ChEMBL document CHEMBL1629525, “Synthesis and characterization of 1,3-dihydro-benzo[b][1,4]diazepin-2-one derivatives: Part 4. In vivo active potent and selective non-competitive metabotropic glutamate receptor 2/3 antagonists” (Bioorg Med Chem Lett, 2010).
